Data as given in ChEMBL document CHEMBL1154793, “The lecanindoles, nonsteroidal progestins from the terrestrial fungus Verticillium lecanii 6144” (J Nat Prod, 2009).

Tests used:
Progesterone receptor = biological target: T1, Progesterone receptor (Homo sapiens, UniProt P06401)
T1 sequence (P06401 whole entry): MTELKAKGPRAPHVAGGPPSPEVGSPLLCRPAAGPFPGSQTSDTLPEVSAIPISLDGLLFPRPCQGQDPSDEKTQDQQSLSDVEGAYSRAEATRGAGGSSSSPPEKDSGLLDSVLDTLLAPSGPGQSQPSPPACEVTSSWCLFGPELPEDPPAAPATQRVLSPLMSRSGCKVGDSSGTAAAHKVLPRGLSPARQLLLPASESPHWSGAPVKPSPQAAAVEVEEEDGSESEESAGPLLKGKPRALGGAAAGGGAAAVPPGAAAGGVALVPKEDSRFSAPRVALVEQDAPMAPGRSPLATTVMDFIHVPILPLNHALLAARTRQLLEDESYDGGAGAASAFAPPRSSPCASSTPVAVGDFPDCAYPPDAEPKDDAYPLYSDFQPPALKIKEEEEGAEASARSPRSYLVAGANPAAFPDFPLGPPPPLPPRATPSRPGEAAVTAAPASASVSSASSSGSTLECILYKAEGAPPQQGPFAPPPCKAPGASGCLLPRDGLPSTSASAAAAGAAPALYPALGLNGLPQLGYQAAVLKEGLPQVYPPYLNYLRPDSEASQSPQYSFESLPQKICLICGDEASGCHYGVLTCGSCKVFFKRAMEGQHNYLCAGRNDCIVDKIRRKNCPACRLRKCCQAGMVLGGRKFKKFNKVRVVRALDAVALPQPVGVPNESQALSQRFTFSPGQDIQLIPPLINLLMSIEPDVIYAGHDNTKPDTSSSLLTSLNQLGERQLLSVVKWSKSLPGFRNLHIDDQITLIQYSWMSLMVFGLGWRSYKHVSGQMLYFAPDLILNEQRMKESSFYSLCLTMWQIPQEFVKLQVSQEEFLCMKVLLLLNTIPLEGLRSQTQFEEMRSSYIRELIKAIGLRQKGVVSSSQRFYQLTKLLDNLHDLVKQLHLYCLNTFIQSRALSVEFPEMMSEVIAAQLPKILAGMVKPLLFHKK

[1] = biological target: T2, Mineralocorticoid receptor (Homo sapiens) (UniProt P08235); assay: Antagonist activity at mineralocorticoid receptor ligand binding domain expressed in african green monkey COS7 cells co-transfected with Gal4-LBD by luciferase reporter gene assay relative to control; type: cell-based; design: scale not given: the % may be the effect or the level left; details: COS-7
T2 sequence (whole entry): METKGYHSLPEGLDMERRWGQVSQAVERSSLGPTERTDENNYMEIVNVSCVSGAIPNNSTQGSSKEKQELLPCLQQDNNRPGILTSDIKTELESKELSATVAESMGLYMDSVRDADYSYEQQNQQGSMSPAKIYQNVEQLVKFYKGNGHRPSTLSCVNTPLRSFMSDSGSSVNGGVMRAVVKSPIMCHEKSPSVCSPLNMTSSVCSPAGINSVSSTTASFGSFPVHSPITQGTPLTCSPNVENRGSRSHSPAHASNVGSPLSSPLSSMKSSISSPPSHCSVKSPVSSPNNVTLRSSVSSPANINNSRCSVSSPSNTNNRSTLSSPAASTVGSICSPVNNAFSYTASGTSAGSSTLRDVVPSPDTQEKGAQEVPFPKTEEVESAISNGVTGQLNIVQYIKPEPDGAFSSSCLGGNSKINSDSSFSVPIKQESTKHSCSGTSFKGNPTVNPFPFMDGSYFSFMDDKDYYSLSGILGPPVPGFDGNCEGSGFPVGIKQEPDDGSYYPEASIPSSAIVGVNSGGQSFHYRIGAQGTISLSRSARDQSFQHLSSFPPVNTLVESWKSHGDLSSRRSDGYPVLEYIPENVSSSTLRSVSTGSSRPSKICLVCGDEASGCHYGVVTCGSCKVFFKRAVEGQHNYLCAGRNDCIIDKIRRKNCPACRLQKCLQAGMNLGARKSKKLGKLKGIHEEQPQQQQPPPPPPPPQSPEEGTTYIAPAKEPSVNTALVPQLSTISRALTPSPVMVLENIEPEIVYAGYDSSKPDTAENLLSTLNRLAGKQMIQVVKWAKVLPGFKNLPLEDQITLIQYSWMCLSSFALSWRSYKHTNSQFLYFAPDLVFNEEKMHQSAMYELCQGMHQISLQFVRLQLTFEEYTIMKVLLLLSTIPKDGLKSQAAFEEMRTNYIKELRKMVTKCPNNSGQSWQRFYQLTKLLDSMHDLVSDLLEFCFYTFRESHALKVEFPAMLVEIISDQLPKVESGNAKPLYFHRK

[2] = biological target: T3, Androgen receptor (Homo sapiens) (UniProt P10275); assay: Antagonist activity at androgen receptor ligand binding domain expressed in african green monkey COS7 cells co-transfected with Gal4-LBD by luciferase reporter gene assay relative to control; type: cell-based; design: scale not given: the % may be the effect or the level left; details: COS-7
T3 sequence (whole entry): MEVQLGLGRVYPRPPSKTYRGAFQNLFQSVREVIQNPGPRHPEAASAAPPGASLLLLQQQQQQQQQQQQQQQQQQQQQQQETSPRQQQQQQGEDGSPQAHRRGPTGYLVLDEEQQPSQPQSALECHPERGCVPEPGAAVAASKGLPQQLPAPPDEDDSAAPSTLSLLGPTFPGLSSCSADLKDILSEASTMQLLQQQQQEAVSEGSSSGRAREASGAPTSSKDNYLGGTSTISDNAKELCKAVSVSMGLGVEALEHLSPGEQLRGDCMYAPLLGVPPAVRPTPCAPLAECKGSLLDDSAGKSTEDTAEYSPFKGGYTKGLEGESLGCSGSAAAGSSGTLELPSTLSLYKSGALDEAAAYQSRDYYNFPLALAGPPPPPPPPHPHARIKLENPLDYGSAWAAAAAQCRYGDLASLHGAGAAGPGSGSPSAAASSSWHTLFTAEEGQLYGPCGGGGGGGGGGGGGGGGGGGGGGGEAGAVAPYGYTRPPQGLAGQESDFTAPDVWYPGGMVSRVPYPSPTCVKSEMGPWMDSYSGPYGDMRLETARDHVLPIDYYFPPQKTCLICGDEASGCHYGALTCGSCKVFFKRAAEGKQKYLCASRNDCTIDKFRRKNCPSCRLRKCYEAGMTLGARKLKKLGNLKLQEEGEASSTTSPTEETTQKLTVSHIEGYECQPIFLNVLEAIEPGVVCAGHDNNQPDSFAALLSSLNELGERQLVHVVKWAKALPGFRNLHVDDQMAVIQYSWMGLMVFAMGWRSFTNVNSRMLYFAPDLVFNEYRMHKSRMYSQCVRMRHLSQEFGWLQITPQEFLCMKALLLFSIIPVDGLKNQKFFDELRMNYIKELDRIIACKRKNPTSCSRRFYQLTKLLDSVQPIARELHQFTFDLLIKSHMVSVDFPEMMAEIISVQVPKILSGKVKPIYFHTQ

Estrogen receptor beta = Estrogen receptor beta (Homo sapiens, UniProt Q92731)
Description: Antagonist activity at estrogen receptor beta ligand binding domain expressed in african green monkey COS7 cells co-transfected with Gal4-LBD by luciferase reporter gene assay

Androgen receptor = biological target: T4, Androgen receptor (Homo sapiens, UniProt P10275)
T4 sequence (P10275 whole entry): T3 sequence (whole entry)

[3] = biological target: T5, Mineralocorticoid receptor (Homo sapiens, UniProt P08235)
T5 sequence (P08235 whole entry): T2 sequence (whole entry)

Chain of Estrogen receptor beta (Q92731 whole entry): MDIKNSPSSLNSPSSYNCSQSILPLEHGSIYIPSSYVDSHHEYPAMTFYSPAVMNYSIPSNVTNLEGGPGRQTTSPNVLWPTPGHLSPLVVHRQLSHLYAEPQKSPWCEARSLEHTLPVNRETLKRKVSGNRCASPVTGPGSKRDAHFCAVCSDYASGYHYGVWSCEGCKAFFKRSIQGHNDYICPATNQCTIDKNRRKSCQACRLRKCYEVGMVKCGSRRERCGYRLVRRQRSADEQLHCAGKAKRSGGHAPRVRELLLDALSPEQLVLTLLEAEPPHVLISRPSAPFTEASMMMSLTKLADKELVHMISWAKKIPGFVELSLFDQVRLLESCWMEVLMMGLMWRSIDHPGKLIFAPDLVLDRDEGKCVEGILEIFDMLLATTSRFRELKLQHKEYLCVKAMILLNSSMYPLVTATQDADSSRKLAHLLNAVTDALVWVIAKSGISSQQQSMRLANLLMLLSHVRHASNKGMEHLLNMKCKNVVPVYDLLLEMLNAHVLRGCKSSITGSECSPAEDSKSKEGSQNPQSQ

| Structure (SMILES) | EC50 (Progesterone receptor) | Activity [1] | Activity [2] | IC50 (Estrogen receptor beta) | IC50 (Androgen receptor) | IC50 [3] |
| --- | --- | --- | --- | --- | --- | --- |
| CC1(C)[C@H](O)CC[C@]2(C)[C@@]3(C)c4[nH]c5ccccc5c4C[C@@H]3CC[C@@]12O [LECANINDOLE D] | 0.0011 µM | 82% | 41% | > 3 µM | > 10 µM | > 3000 µM |
| CC1(C)C(=O)CC[C@]2(C)[C@@]3(C)c4[nH]c5ccccc5c4C[C@@H]3CC[C@@]12O [LECANINDOLE B] | 0.0003 µM | 47% | 32% | > 10 µM | > 10 µM | > 10000 µM |
